Source: patent US20150105252A1, “SUBSTITUTED PYRAZOLES AS HERBICIDES” (E I DU PONT DE NEMOURS AND COMPANY, priority 2013, published 2015)

Tests used:
field violet = assay: Test D preemergence; format: in vivo, Viola arvensis; conditions: for Plant response rating, Field Violet: Preemergence, scale 0 to 100
Text: (§1) Seeds of plant species selected from bluegrass (annual bluegrass, Poa annua), blackgrass (Alopecurus myosuroides), canarygrass (littleseed canarygrass, Phalaris minor), chickweed (common chickweed, Stellaria media), galium (catchweed bedstraw, Galium aparine), bromegrass, downy (downy bromegrass, Bromus tectorum), field poppy (Papaver rhoeas), field violet (Viola arvensis), foxtail, green (green foxtail, Setaria viridis), deadnettle (henbit deadnettle, Lamium amplexicaule), ryegrass, Italian (Italian ryegrass, Lolium multiflorum), kochia (Kochia scoparia), lambsquarters (Chenopodium album), oilseed rape (Brassica napus), pigweed (redroot pigweed, Amaranthus retroflexus), chamomile (scentless chamomile, Matricaria inodora), speedwell (bird's-eye speedwell, Veronica persica), barley, spring (spring barley, Hordeum vulgare), wheat, spring (spring wheat, Triticum aestivum), buckwheat, wild (wild buckwheat, Polygonum convolvulus), mustard, wild (wild mustard, Sinapis arvensis), oat, wild (wild oat, Avena fatua), radish, wild (wild radish, Raphanus raphanistrum), windgrass (Apera spica-venti), Russian thistle (Salsola kali), barley, winter (winter barley, Hordeum vulgare), and wheat, winter (winter wheat, Triticum aestivum) were planted into a silt loam soil and treated preemergence with test chemicals formulated in a non-phytotoxic solvent mixture which included a surfactant.
(§2) At the same time, these species were planted in pots containing Redi-Earth® planting medium (Scotts Company, 14111 Scottslawn Road, Marysville, Ohio 43041) comprising spaghnum peat moss, vermiculite, wetting agent and starter nutrients and treated with postemergence applications of the test chemicals formulated in the same manner. Plants ranged in height from 2 to 18 cm (1- to 4-leaf stage). Treated plants and controls were maintained in a controlled growth environment for 14 to 21 days after which time all species were compared to controls and visually evaluated. Plant response ratings, summarized in Table D, are based on a scale of 0 to 100 where 0 is no effect and 100 is complete control. A dash (-) response means no test result.

deadnettle = assay: Test D postemergence; format: in vivo, Lamium amplexicaule; conditions: scale 0 to 100
Text: as §1, §2

blackgrass = assay: Test D postemergence; format: in vivo, Alopecurus myosuroides; conditions: scale 0 to 100
Text: as §1, §2

chickweed = assay: Test D preemergence; format: in vivo, Stellaria media; conditions: for Plant response rating, Chickweed: Preemergence, scale 0 to 100
Text: as §1, §2

windgrass = assay: Test D preemergence; format: in vivo, Apera spica-venti; conditions: for Plant response rating, Windgrass: Preemergence, scale 0 to 100
Text: as §1, §2

kochia [1] = assay: Test D preemergence; format: in vivo, Kochia scoparia; conditions: for Plant response rating, Kochia: Preemergence, scale 0 to 100
Text: as §1, §2

field poppy = assay: Test D preemergence; format: in vivo, Papaver rhoeas; conditions: for Plant response rating, Field Poppy: Preemergence, scale 0 to 100
Text: as §1, §2

kochia [2] = assay: Test D postemergence; format: in vivo, Kochia scoparia; conditions: scale 0 to 100
Text: as §1, §2

bluegrass = assay: Test D preemergence; format: in vivo, Poa annua; conditions: for Plant response rating, Bluegrass: Preemergence, scale 0 to 100
Text: as §1, §2

buckwheat, wild = assay: Test D postemergence; format: in vivo, Polygonum convolvulus; conditions: scale 0 to 100
Text: as §1, §2

barley, winter = assay: Test D postemergence; format: in vivo, Hordeum vulgare; conditions: scale 0 to 100
Text: as §1, §2

barley, spring = assay: Test D postemergence; format: in vivo, Hordeum vulgare; conditions: scale 0 to 100
Text: as §1, §2

speedwell [3] = assay: Test D preemergence; format: in vivo, Veronica persica; conditions: for Plant response rating, Speedwell: Preemergence, scale 0 to 100
Text: as §1, §2

bromegrass, downy = assay: Test D postemergence; format: in vivo, Bromus tectorum; conditions: scale 0 to 100
Text: as §1, §2

chamomile [4] = assay: Test D postemergence; format: in vivo, Matricaria inodora; conditions: scale 0 to 100
Text: as §1, §2

speedwell [5] = assay: Test D postemergence; format: in vivo, Veronica persica; conditions: scale 0 to 100
Text: as §1, §2

oilseed rape = assay: Test D preemergence; format: in vivo, Brassica napus; conditions: for Plant response rating, Oilseed Rape: Preemergence, scale 0 to 100
Text: as §1, §2

wheat, winter = assay: Test D preemergence; format: in vivo, Triticum aestivum; conditions: for Plant response rating, Wheat, Winter: Preemergence, scale 0 to 100
Text: as §1, §2

wheat, spring = assay: Test D preemergence; format: in vivo, Triticum aestivum; conditions: for Plant response rating, Wheat, Spring: Preemergence, scale 0 to 100
Text: as §1, §2

chamomile [6] = assay: Test D preemergence; format: in vivo, Matricaria inodora; conditions: for Plant response rating, Chamomile: Preemergence, scale 0 to 100
Text: as §1, §2

[7] = 16 g ai/ha, taken as preemergence

Cc1cc(C(=O)NCC(F)(F)F)nn1Cc1ccnc(C(F)(F)F)c1 [Compound 74]
95: Plant response rating, Field Violet (field violet; 125 g ai/ha) | Plant response rating, Field Poppy (field poppy; 62 g ai/ha)
75: Plant response rating, Speedwell (speedwell [5]; Postemergence, 16 g ai/ha) | Speedwell plant response rating (speedwell [5]; Postemergence, 125 g ai/ha)
15: Deadnettle plant response rating (deadnettle; Postemergence, 31 g ai/ha) | Plant response rating, Kochia (kochia [2]; Postemergence, 16 g ai/ha) | Plant response rating, Chamomile (chamomile [4]; Postemergence, 16 g ai/ha) | Chamomile plant response rating (chamomile [4]; Postemergence, 31 g ai/ha) | Plant response rating, Oilseed Rape (oilseed rape; 31 g ai/ha)
50: Plant response rating (scale 0 to 100), Kochia (kochia [1]; [7]) | Plant response rating (scale 0 to 100), Field Poppy (field poppy; [7]) | Chamomile plant response rating (chamomile [4]; Postemergence, 125 g ai/ha)
65: Kochia plant response rating (kochia [2]; Postemergence, 125 g ai/ha) | Buckwheat, Wild plant response rating (buckwheat, wild; Postemergence, 125 g ai/ha)
35: Plant response rating, Windgrass (windgrass; 125 g ai/ha) | Kochia plant response rating (kochia [2]; postemergence, 62 g ai/ha)
70: Plant response rating, Chickweed (chickweed; 31 g ai/ha) | Speedwell plant response rating (speedwell [5]; postemergence, 62 g ai/ha)
25: Plant response rating (scale 0 to 100), Field Violet (field violet; [7]) | Plant response rating, Windgrass (windgrass; 62 g ai/ha) | Kochia plant response rating (kochia [2]; Postemergence, 31 g ai/ha)
5: Blackgrass plant response rating (blackgrass; postemergence, 62 g ai/ha) | Plant response rating, Bluegrass (bluegrass; 125 g ai/ha) | Barley, Winter plant response rating (barley, winter; Postemergence, 125 g ai/ha) | Plant response rating (scale 0 to 100), Oilseed Rape (oilseed rape; [7]) | Plant response rating, Wheat, Winter (wheat, winter; 125 g ai/ha)
30: Deadnettle plant response rating (deadnettle; Postemergence, 125 g ai/ha)
40: Plant response rating, Oilseed Rape (oilseed rape; 62 g ai/ha)
100: Plant response rating, Chickweed (chickweed; 62 g ai/ha) | Plant response rating, Chickweed (chickweed; 125 g ai/ha) | Plant response rating, Kochia (kochia [1]; 62 g ai/ha) | Plant response rating, Kochia (kochia [1]; 125 g ai/ha) | Plant response rating, Field Poppy (field poppy; 125 g ai/ha) | Plant response rating (scale 0 to 100), Speedwell (speedwell [3]; [7]) | Plant response rating, Speedwell (speedwell [3]; 31 g ai/ha) | Plant response rating, Speedwell (speedwell [3]; 62 g ai/ha) | Plant response rating, Speedwell (speedwell [3]; 125 g ai/ha)
20: Deadnettle plant response rating (deadnettle; postemergence, 62 g ai/ha) | Plant response rating (scale 0 to 100), Chickweed (chickweed; [7]) | Chamomile plant response rating (chamomile [4]; postemergence, 62 g ai/ha) | Plant response rating (scale 0 to 100), Chamomile (chamomile [6]; [7])
90: Plant response rating, Chamomile (chamomile [6]; 125 g ai/ha)
10: Plant response rating, Deadnettle (deadnettle; Postemergence, 16 g ai/ha)
80: Plant response rating, Field Poppy (field poppy; 31 g ai/ha) | Plant response rating, Chamomile (chamomile [6]; 62 g ai/ha)
0: Plant response rating, Blackgrass (blackgrass; Postemergence, 16 g ai/ha) | Blackgrass plant response rating (blackgrass; Postemergence, 31 g ai/ha) | Blackgrass plant response rating (blackgrass; Postemergence, 125 g ai/ha) | Plant response rating (scale 0 to 100), Windgrass (windgrass; [7]) | Plant response rating, Windgrass (windgrass; 31 g ai/ha) | Plant response rating (scale 0 to 100), Bluegrass (bluegrass; [7]) | Plant response rating, Bluegrass (bluegrass; 31 g ai/ha) | Plant response rating, Bluegrass (bluegrass; 62 g ai/ha) | Barley, Winter plant response rating (barley, winter; Postemergence, 16 g ai/ha) | Barley, Winter plant response rating (barley, winter; Postemergence, 31 g ai/ha) | Barley, Winter plant response rating (barley, winter; postemergence, 62 g ai/ha) | Barley, Spring plant response rating (barley, spring; Postemergence, 16 g ai/ha) | Barley, Spring plant response rating (barley, spring; Postemergence, 31 g ai/ha) | Barley, Spring plant response rating (barley, spring; Postemergence, 125 g ai/ha) | Barley, Spring plant response rating (barley, spring; postemergence, 62 g ai/ha) | Plant response rating, Bromegrass, Downy (bromegrass, downy; Postemergence, 16 g ai/ha) | Bromegrass, Downy plant response rating (bromegrass, downy; Postemergence, 31 g ai/ha) | Bromegrass, Downy plant response rating (bromegrass, downy; Postemergence, 125 g ai/ha) | Bromegrass, Downy plant response rating (bromegrass, downy; postemergence, 62 g ai/ha) | Plant response rating (scale 0 to 100), Wheat, Winter (wheat, winter; [7]) | Plant response rating, Wheat, Winter (wheat, winter; 31 g ai/ha) | Plant response rating, Wheat, Winter (wheat, winter; 62 g ai/ha) | Plant response rating (scale 0 to 100), Wheat, Spring (wheat, spring; [7]) | Plant response rating, Wheat, Spring (wheat, spring; 31 g ai/ha) | Plant response rating, Wheat, Spring (wheat, spring; 62 g ai/ha) | Plant response rating, Wheat, Spring (wheat, spring; 125 g ai/ha)
45: Buckwheat, Wild plant response rating (buckwheat, wild; postemergence, 62 g ai/ha) | Plant response rating, Oilseed Rape (oilseed rape; 125 g ai/ha)
60: Plant response rating, Field Violet (field violet; 31 g ai/ha) | Plant response rating, Field Violet (field violet; 62 g ai/ha) | Plant response rating, Buckwheat, Wild (buckwheat, wild; Postemergence, 16 g ai/ha) | Buckwheat, Wild plant response rating (buckwheat, wild; Postemergence, 31 g ai/ha) | Speedwell plant response rating (speedwell [5]; Postemergence, 31 g ai/ha) | Plant response rating, Chamomile (chamomile [6]; 31 g ai/ha)
85: Plant response rating, Kochia (kochia [1]; 31 g ai/ha)
